Source: patent US10597388B2, “Pyridazinone herbicides” (FMC CORPORATION, priority 2014, dated 2020)

Columns and labels:
Experiment in all cases: Test E greenhouse herbicide test, pre- and postemergence
Assay type in all cases: in vivo
[1] = system: goosegrass (Eleusine indica); conditions: Preemergence
Procedure, shortened: (§1)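 Seeds were sown in silt loam and sprayed preemergence with compound in a non-phytotoxic solvent mix containing surfactant; for postemergence, plants at 2 to 18 cm (1- to 4-leaf stage) in peat-based potting medium were sprayed with the same formulation. After 14 to 21 d in a greenhouse, injury was rated visually against controls (0–100).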

[2] = system: field bindweed (Convolvulus arvensis)
Procedure, shortened: as §1

[3] = system: arrowleaf sida (Sida rhombifolia)
Procedure, shortened: as §1

[4] = system: waterhemp (common waterhemp, Amaranthus rudis)
Procedure, shortened: as §1

[5] = system: wild poinsettia (Euphorbia heterophylla)
Procedure, shortened: as §1

[6] = 62 g ai/ha, scale 0 to 100 (0 no effect, 100 complete control)
[7] = 31 g ai/ha, scale 0 to 100, 0 no effect, 100 complete control
[8] = 125 g ai/ha, visual, scale 0 no effect to 100 complete control
[9] = 62 g ai/ha, Preemergence, scale 0 to 100 (0 no effect, 100 complete control)
[10] = Preemergence, 31 g ai/ha, scale 0 to 100, 0 no effect, 100 complete control
[11] = Preemergence, 125 g ai/ha, visual, scale 0 no effect to 100 complete control
[12] = 125 g ai/ha, Preemergence, scale 0 to 100 (0 no effect, 100 complete control)
[13] = 125 g ai/ha, scale 0 to 100 (0 no effect, 100 complete control)
[14] = 250 g ai/ha, visual, scale 0 no effect to 100 complete control
[15] = 62 g ai/ha, Postemergence, scale 0 to 100 (0 no effect, 100 complete control)
[16] = 125 g ai/ha, Postemergence, scale 0 to 100 (0 no effect, 100 complete control)
[17] = 250 g ai/ha, Postemergence, scale 0 to 100 (0 no effect, 100 complete control)
[18] = Postemergence, 31 g ai/ha, visual, scale 0 no effect to 100 complete control
[19] = Preemergence, 250 g ai/ha, visual, scale 0 no effect to 100 complete control
[20] = 16 g ai/ha, scale 0 to 100, 0 no effect, 100 complete control
[21] = Postemergence, 16 g ai/ha, visual, scale 0 no effect to 100 complete control
[22] = Preemergence, 16 g ai/ha, scale 0 to 100, 0 no effect, 100 complete control

| SMILES | Plant response rating, Goosegrass [1, 6] | Plant response rating, Goosegrass [1, 7] | Plant response rating, Field Bindweed [2, 9] | Plant response rating, Field Bindweed [2, 10] | Plant response rating, Arrowleaf Sida [3, 9] | Plant response rating, Arrowleaf Sida [3, 10] | Plant response rating, Waterhemp [4, 9] | Plant response rating, Waterhemp [4, 12] | Plant response rating, Waterhemp [4, 10] | Plant response rating, Goosegrass [1, 13] | Plant response rating, Goosegrass [1, 14] | Plant response rating, Field Bindweed [2, 15] | Plant response rating, Field Bindweed [2, 16] | Plant response rating, Field Bindweed [2, 12] | Plant response rating, Field Bindweed [2, 18] | Plant response rating, Arrowleaf Sida [3, 15] | Plant response rating, Arrowleaf Sida [3, 16] | Plant response rating, Arrowleaf Sida [3, 18] | Plant response rating, Waterhemp [4, 16] | Plant response rating, Waterhemp [4, 18] | further results |
| --- | --- | --- | --- | --- | --- | --- | --- | --- | --- | --- | --- | --- | --- | --- | --- | --- | --- | --- | --- | --- | --- |
| Cc1cc(C)c2ccccc2c1-c1c(O)c(C)nn(C)c1=O [Compound 21] | 95 | 90 | 95 | 35 | 0 | 0 | 95 | 100 | 95 |  |  |  |  |  |  |  |  |  |  |  | Plant response rating, Goosegrass [1, 8]: 95; Plant response rating, Field Bindweed [2, 11]: 98; Plant response rating, Arrowleaf Sida [3, 11]: 50 |
| Cc1ccc2sc(Br)c(-c3c(O)c(C)nn(C)c3=O)c2c1 [Compound 79] | 60 | 50 | 90 | 60 | 80 | 75 | 100 | 100 | 75 | 60 | 65 | 95 | 95 | 100 | 80 | 50 | 60 | 50 | 70 | 50 | Plant response rating, Field Bindweed [2, 17]: 95; Plant response rating, Field Bindweed [2, 19]: 100; Plant response rating, Arrowleaf Sida [3, 12]: 75; Plant response rating, Arrowleaf Sida [3, 17]: 70; Plant response rating, Arrowleaf Sida [3, 19]: 75; Plant response rating, Waterhemp [4, 15]: 60; Plant response rating, Waterhemp [4, 17]: 80; Plant response rating, Waterhemp [4, 19]: 100; Plant response rating, Poinsettia, Wild [5, 15]: 10; Plant response rating, Poinsettia, Wild [5, 9]: 60; Plant response rating, Poinsettia, Wild [5, 16]: 20; Plant response rating, Poinsettia, Wild [5, 12]: 60; Plant response rating, Poinsettia, Wild [5, 17]: 10; Plant response rating, Poinsettia, Wild [5, 18]: 10; Plant response rating, Poinsettia, Wild [5, 10]: 50; Plant response rating, Poinsettia, Wild [5, 19]: 55 |
| Cc1ccc2sc(C)c(-c3c(OC(=O)OC(C)C)c(C)nn(C)c3=O)c2c1 [Compound 66] | 10 | 5 | 50 | 5 | 40 | 0 | 80 | 90 | 65 | 10 |  | 80 | 80 | 40 | 60 | 60 | 70 | 40 | 80 | 65 | Plant response rating, Goosegrass [1, 20]: 5; Plant response rating, Field Bindweed [2, 21]: 70; Plant response rating, Field Bindweed [2, 22]: 0; Plant response rating, Arrowleaf Sida [3, 12]: 65; Plant response rating, Arrowleaf Sida [3, 21]: 30; Plant response rating, Arrowleaf Sida [3, 22]: 0; Plant response rating, Waterhemp [4, 15]: 75; Plant response rating, Waterhemp [4, 21]: 70; Plant response rating, Waterhemp [4, 22]: 0 |
| Cc1nn(C)c(=O)c(-c2ccc(Br)c3ccccc23)c1O [Compound 75] | 0 | 0 | 5 | 0 | 75 | 50 | 60 | 100 | 50 | 0 | 5 | 90 | 80 | 100 | 85 | 70 | 80 | 70 | 90 | 80 | Plant response rating, Field Bindweed [2, 17]: 85; Plant response rating, Field Bindweed [2, 19]: 98; Plant response rating, Arrowleaf Sida [3, 12]: 90; Plant response rating, Arrowleaf Sida [3, 17]: 80; Plant response rating, Arrowleaf Sida [3, 19]: 98; Plant response rating, Waterhemp [4, 15]: 90; Plant response rating, Waterhemp [4, 17]: 95; Plant response rating, Waterhemp [4, 19]: 100 |
| COC(=O)Oc1c(C)nn(C)c(=O)c1-c1c(C)sc2ccc(C)cc12 [Compound 80] | 30 | 0 | 70 | 25 | 35 | 0 | 100 | 100 | 70 | 20 |  |  |  | 100 |  |  |  |  |  |  | Plant response rating, Goosegrass [1, 20]: 0; Plant response rating, Field Bindweed [2, 22]: 20; Plant response rating, Arrowleaf Sida [3, 12]: 25; Plant response rating, Arrowleaf Sida [3, 22]: 0; Plant response rating, Waterhemp [4, 22]: 0; Plant response rating, Poinsettia, Wild [5, 9]: 0; Plant response rating, Poinsettia, Wild [5, 12]: 40; Plant response rating, Poinsettia, Wild [5, 22]: 0; Plant response rating, Poinsettia, Wild [5, 10]: 0 |
| Cc1ccc2ccccc2c1-c1c(O)c(I)nn(C)c1=O [Compound 29] | 20 | 0 | 90 | 80 | 90 | 70 | 90 | 98 | 80 |  | 90 |  |  |  |  |  |  |  |  |  | Plant response rating, Goosegrass [1, 8]: 50; Plant response rating, Field Bindweed [2, 11]: 95; Plant response rating, Field Bindweed [2, 19]: 98; Plant response rating, Arrowleaf Sida [3, 11]: 98; Plant response rating, Arrowleaf Sida [3, 19]: 98; Plant response rating, Waterhemp [4, 19]: 100 |
| CC(=O)Oc1c(C)nn(C)c(=O)c1-c1c(C)cc(C)c2ccccc12 [Compound 99] |  |  |  |  |  |  |  |  |  |  |  | 70 | 80 |  | 60 | 50 | 60 | 30 | 75 | 45 | Plant response rating, Field Bindweed [2, 21]: 50; Plant response rating, Arrowleaf Sida [3, 21]: 10; Plant response rating, Waterhemp [4, 21]: 65; Plant response rating, Poinsettia, Wild [5, 15]: 40; Plant response rating, Poinsettia, Wild [5, 16]: 50; Plant response rating, Poinsettia, Wild [5, 21]: 35; Plant response rating, Poinsettia, Wild [5, 18]: 30 |
| Cc1nn(C)c(=O)c(-c2cccc3ccc(Br)cc23)c1O [Compound 126] |  |  |  |  |  |  |  |  |  |  |  | 90 | 95 |  | 85 | 80 | 100 | 75 | 90 | 75 | Plant response rating, Field Bindweed [2, 17]: 100; Plant response rating, Arrowleaf Sida [3, 17]: 85; Plant response rating, Waterhemp [4, 17]: 90; Plant response rating, Poinsettia, Wild [5, 15]: 20; Plant response rating, Poinsettia, Wild [5, 16]: 50; Plant response rating, Poinsettia, Wild [5, 17]: 50; Plant response rating, Poinsettia, Wild [5, 18]: 30 |
| Cc1cc2ccccc2c(-c2c(O)c(C)nn(C)c2=O)c1C [Compound 34] | 5 | 5 | 50 | 5 | 20 | 0 | 100 | 100 | 100 |  | 10 | 80 | 80 |  | 70 | 60 | 70 | 65 | 85 | 70 | Plant response rating, Goosegrass [1, 8]: 10; Plant response rating, Field Bindweed [2, 17]: 95; Plant response rating, Field Bindweed [2, 11]: 40; Plant response rating, Field Bindweed [2, 19]: 60; Plant response rating, Arrowleaf Sida [3, 17]: 75; Plant response rating, Arrowleaf Sida [3, 11]: 65; Plant response rating, Arrowleaf Sida [3, 19]: 80; Plant response rating, Waterhemp [4, 15]: 85; Plant response rating, Waterhemp [4, 17]: 90; Plant response rating, Waterhemp [4, 19]: 100 |
